# Patent US11020449B2, “Use of the GK-1 peptide as an antitumoral and/or antimetastatic agent” (UNIVERSIDAD NACIONAL AUTÓNOMA DE MÉXICO, priority 2016, dated 2021)
# Like-named read-outs stand apart in the source and are kept apart here.
# Experiments:
# [1] = system: influenza vaccine; settings: cited from earlier work
# [2] = system: B16-F10 cells; settings: for Number of tumors developed (Tumors): 10 μg GK-1 i.v. weekly, 32 days, mean±standard deviation
# Method: To evaluate the antimetastatic effect of GK-1 in melanoma, 2×10^4 cells of the B16-F10 line were intravenously injected to C57BL/6 mice (n=40; 20 females and 20 males). At day 16 post-implantation, mice were separated into two groups: The G1 group (10 males and 10 females) was intravenously administered with 10 μg of GK-1 dissolved in 100 μL of ISS; the G2 group (10 males, 10 females) was intravenously administered with 100 μL of ISS. Treatments were repeated weekly for 32 days after cell implantation.
# [3] = system: 4T1 cells
# Method: The 4T1 cell line (American Type Culture Collection, Manassas, Va.) was used to induce a neoplasia emulating breast cancer; according to the natural history of the disease, metastasis to lung should be observed [Aslakson C. J. et al., Cancer Res, 1992. 52(6): 1399-405; Mi Z et al., J Biol Chem, 2004. 279(45):46659-67]. The 4T1 cell line was cultured in RPMI medium (Gibco, Grand Island, N.Y.) supplemented with 10% of heat-inactivated fetal bovine serum, 10 U/mL of penicillin, and 100 μg/mL of streptomycin, at 37° C. under 95% relative humidity and 5% CO2. Cultured cells were recovered by trypsinization (0.25% trypsin-0.53 mM EDTA) and washed three times with cold serum-free RPMI medium before subcutaneous implanting. About 1×10^3 4T1 cells were subcutaneously injected in the right mammary gland in BALB/cAnN mice. Tumor induction was determined by the appearance of 1 mm×1 mm solid tumors (palpable tumor), between 18 and 20 days after cell implantation. Once the established tumors reached that size, mice were distributed into two groups: Group 1 (G1) was intravenously administered with a solution of 10 μg of GK-1 in 100 μL of ISS (corresponding to 0.5 mg/kg); Group 2 (G2) was administered with ISS (100 μL) by the same route. The administration was repeated weekly at different times.
# All animals were weighed before treatment, and tumor growth was continuously recorded. Tumor volume was calculated according to the following formula [Carlsson G. et al., J Cancer Res Clin Oncol, 1983. 105(1): 20-23]: Volume (mm^3)=πLW^2/6, where L is the largest side and W is the smallest side.
# At the day 39 after cell implanting, animals were euthanized in accordance with the guidelines in the United Kingdom Coordinating Committee on Cancer Research (UKCCCR). The primary tumor, spleen, lungs, liver, and brain were dissected. In total, five separate experiments were performed.
# As mentioned in the Example of Embodiment 1, once palpable tumors were developed in mice (G1: females X=6, males X=4; G2: females X=6, males X=4 per experiment), tumor volume was determined every third day for 39 days, with electronic Vernier.
# [4] = system: TCD4+ and TCD8+ lymphocyte populations; settings: cited from earlier work
substance,measurement,setting,value
G-Y-Y-Y-P-S-D-P-N-T-F-Y-A-P-P-Y-S-A (GYYYPSDPNTFYAPPYSA; tapeworm) [GK-1],infiltrate of mononuclear cells to the lung parenchyma,[1]; a few days after subcutaneous administration,promotes the infiltrate of mononuclear cells
same,titer of specific IgG antibodies,"[1]; young and senile mice, influenza vaccine adjuvant",increasing the titer of specific IgG antibodies
same,"Distant (tumors at sites other than the lungs: liver, brain, intestine)",[2]; Females,1/10
same,Lung (mice with lung tumors),[2]; Females,8/10
same,Number of tumors developed (Tumors),[2]; Females,62.9 ± 48.1
same,"Distant (tumors at sites other than the lungs: liver, brain, intestine)",[2]; Males,0/10
same,Lung (mice with lung tumors),[2]; Males,8/10
same,Number of tumors developed (Tumors),[2]; Males,77.0 ± 37.6
same,antimetastatic effect in melanoma,[2]; lung tumor foci G1 versus G2,ineffective to stop metastasis in melanoma
same,Tumor weight,"[3]; Exp 1, day 39",0.825 ± 0.391 g
same,Tumor weight,"[3]; Exp 2, day 39",0.991 ± 0.507 g
same,Tumor weight,"[3]; Exp 3, day 39",1.150 ± 0.939 g
same,Tumor weight,"[3]; Exp 4, day 39",1.477 ± 0.889 g
same,Tumor weight,"[3]; Exp 5, day 39",0.587 ± 0.339 g
same,Tumor weight,"[3]; Total of five experiments, day 39",1.044 ± 0.697 g
same,reduction in tumor weight with respect to untreated mice,[3]; day 39,27.8%
same,Tumor weight,"[3]; day 39, text, five experiments",1.04 ± 0.70 g
same,tumor volume versus untreated mice,[3]; every third day for 39 days,"lower tumor volume than untreated mice, the difference was not statistically significant"
same,proliferation of TCD4+ and TCD8+ lymphocyte populations,[4],increase the proliferation
